We go through one compound from patent publication US8664271B2, “Stabilized leukotriene B4 (LTB4) agent pharmaceutical formulation” (LTB4 Sweden AB, priority 2004, dated 2014).

The nature of data set [1]: Forced degradation (40° C.) of aqueous LTB4 Na salt solutions at different concentrations. Format: physicochemical. As to conditions: aqueous isotonic pH 7.5, 0.01% EDTA. The protocol:
A solution of LTB4 (acid form) at the concentration of 12 mg/ml in ethanol/water, 95/5 (from Cascade Biochem, U.K.), was neutralized with an equivalent of sodium hydroxide to generate the Na salt. […] The ethanolic solution of LTB4 Na salt was evaporated (see Example 1) until an oily residue is obtained. The residue was then redissolved in a phosphate buffered sodium chloride solution (saline) (30 mM sodium phosphate, pH 7.5) containing 0.01% EDTA in order to obtain an isotonic solution of LTB4 Na salt at 25 mg/ml. LTB4 Na salt solution at 0.1 mg/ml was obtained by dilution of the 25 mg/ml solution with an isotonic 30 mM sodium phosphate buffered saline, pH 7.5 containing 0.01% EDTA. Aliquots of the solutions were dispensed in 2 ml type I glass vials as described in Example 1, and stored under air, in the dark, at 40±5° C. LTB4 and impurities were analyzed at the indicated times by reverse phase HPLC using UV detection at 270 nm.

Data set [2] in a line: Forced degradation of aqueous LTB4 sodium salt solutions at increasing sodium hydroxide concentrations. Format: physicochemical. Conditions: for impurity level: five weeks at 40° C.; for pH after five weeks of storage / final pH (after five weeks): 40° C. On the procedure: An ethanolic solution of LTB4 (acid form) obtained from Cascade Biochem (UK) was neutralized by the addition of 1 equivalent of sodium hydroxide to generate LTB4 sodium salt. Aliquots of the ethanolic solution of the sodium salt of LTB4 were dispensed into 2-ml vials (to obtain 2 mg of LTB4 per vial) and the solvent was evaporated to dryness under a stream of nitrogen. The residues in vials were dissolved with 0.9% sodium chloride (NaCl) (vial 1), 0.9% NaCl in 0.1 mN NaOH (vial 2), 0.9% NaCl in 1 mN NaOH (vial 3), 0.9% NaCl in 10 mN NaOH (vial 4), 0.3% NaCl in 0.1N NaOH (vial 5) and in 1N NaOH (vial 6). Aliquots of the solutions were taken for immediate analysis (to) and the remaining solutions of LTB4 sodium salt at 2 mg/ml were stored under air, in the dark at 40±5° C. for five weeks, prior to reverse phase HPLC analysis of LTB4 and impurities as described in example 1.

`CCCCC/C=C\C[C@@H](O)/C=C/C=C/C=C\[C@@H](O)CCCC(=O)[O-].[Na+]` [LTB4 Na salt]: the “stability of 25 mg/ml solution compared with 0.1 mg/ml solution” value in data set [1] is reported as “much less stable”. For the same compound, the impurity level in data set [2] (vial 1: 2 mg/ml in 0.9% NaCl) is given as 100%; in data set [2] (vial 2: 2 mg/ml in 0.9% NaCl in 0.1 mN NaOH), 100%; in data set [2] (vial 3: 2 mg/ml in 0.9% NaCl in 1 mN NaOH), 5.34 % of AUC 270 nm; in data set [2] (vial 4: 2 mg/ml in 0.9% NaCl in 10 mN NaOH), 3.46 % of AUC 270 nm; in data set [2] (vial 5: 2 mg/ml in 0.3% NaCl in 0.1N NaOH), 4.38 % of AUC 270 nm; in data set [2] (vial 6: 2 mg/ml in 1N NaOH), 5.77 % of AUC 270 nm. Besides, the “pH after five weeks of storage” value in data set [2] (vial 1: 0.9% NaCl) and in data set [2] (vial 2: 0.9% NaCl in 0.1 mN NaOH) was below 5 throughout. The “final pH (after five weeks)” value in data set [2] (vial 3: 0.9% NaCl in 1 mN NaOH) is given as 8.02; in data set [2] (vial 4: 0.9% NaCl in 10 mN NaOH) it was 9.83; in data set [2] (vial 5: 0.3% NaCl in 0.1N NaOH), 12.50; in data set [2] (vial 6: 1N NaOH), 13.03.
